From USRE37770E1, “Treatment of skin conditions by use of PPARα activators” (The Regents of the University of California, priority 1997, dated 2002)

Key:
involucrin mRNA = assay: Involucrin mRNA in keratinocytes by Northern Blot; assay type: cell-based, Human; conditions: low calcium (0.03 mM), 24 hours, 10 μM
Method: (§1) Human keratinocyte cells were incubated in culture containing calcium at a concentration of 0.03 mM Ca^++ (a level that is too low to induce differentiation). Also included in the culture medium were clofibrate at 400 μM or ETYA at 10 μM and 20 μM, while separate cell cultures were maintained as controls with neither clofibrate nor ETYA. The production of mRNA for both involucrin and transglutaminase was measured at intervals over a 48-hour time period (0, 6, 12, 24, and 48 hours) by Northern Blot analysis. In each case, the lighter bars represent the control cells and the darker bars the cells incubated in the clofibrate-containing medium. The degree of mRNA generated is expressed as a percent of the control at zero hours.
(§2) Human epidermis was isolated from newborn foreskins and keratinocytes were plated in serum-free keratinocyte growth medium (“KGM”; Clonetics, San Diego, Calif. USA), using conventional techniques. Cells were treated with either the test compounds in vehicle or vehicle alone (<0.1% ethanol) for 24 or 48 hours. The test compounds were obtained from Sigma Chemical Co. (St. Louis. Mo. USA) and were stored as 15 mM stock solutions at −20° C. Mevalonate was solubilized in sterile water.
(§3) Total RNA was isolated by using TRIZOL (Sigma Chemical Co.), following the manufacturer's protocol. Ethanol-precipitate RNA pellets were suspended in sterile, diethylpyrocarbonate (DEPC)-treated water, and RNA was quantified by absorbance at 260 nm using the 260/280 nm ratio as an index of purity. RNA (15 μg per sample) was size fractionated through a 1% agarose gel containing 2.2 M formaldehyde. RNA integrity was visualized following acridine orange staining of the gel following electrophoresis. The RNA was transfered to a nylon membrane that was subsequently baked at 80° C. for 2 hours. Blots were hybridized with the appropriate ^32p-labeled probe overnight at 65° C. Washes were then performed in a solution containing 0.1% SSC and 0.1% sodium dedecyl sulfate (SDS) for 20 minutes at room temperature, followed by a 20-minute wash at 65° C. Autoradiography was performed at −70° C. Blots were probed with β-actin to confirm equal loading. Appropriate bands were quantified by densitometry.
(§4) Northern blot analyses were performed on keratinocytes maintained in low calcium (0.03 mM) and incubated for 24 hours in the presence of vehicle alone (<0.1% ethanol) or vehicle containing 25-hydroxycholesterol (10 μM), 22(R)-hydroxycholesterol (10 μM) cholesterol (10 μM), or mevalonate (500 μM) (individually). The mRNA levels of involucrin (“INV”) and transglutaminase (“TG'ase”) are shown in the bar graph of FIG. 14a, the INV indicated by clear bars and the TG'ase by shaded bars, both with error limits shown.

transglutaminase mRNA = assay: Transglutaminase mRNA in keratinocytes by Northern Blot; assay type: cell-based, Human; conditions: low calcium (0.03 mM), 24 hours, 10 μM
Method: as §1, §2, §3, §4

[1] = tested on: full-thickness flank skin from the fetal rats; assay: Transepidermal water loss (TEWL) of fetal rat skin explants in organ culture (barrier function); assay type: cell-based, Sprague-Dawley rats; conditions: for effect on TEWL / barrier function: 50 μM; for EC50: Rattus norvegicus, read-out: concentration of half-maximal effect on barrier development (TEWL); for EC50 / concentration of maximal effect on barrier development (TEWL): dose response, FIGS. 4a-4c
Method: Timed pregnant Sprague-Dawley rats (plug date=day 0) were obtained from Simonsen (Gilroy, Calif., USA) and fetuses were delivered prematurely on day 17. Transepidermal water loss (TEWL) was measured in excised full-thickness flank skin from the fetal rats after various times in culture. The skin explants were placed dermis-side down onto collagen membrane inserts (3μ pore size) in medium M-199 (serum-free), and submerged, and the lateral edges and dermal surface were sealed with petrolatum, such that water loss occurred only through the epidermal surface. Explant samples were weighed hourly, at ambient temperature (24±3° C.) and humidity (40±5%), over 6 hours using a Cahn balance (sensitivity 0.001 mg). TEWL levels are reported as milligrams of water lost per square millimeter of epidermal surface per hour. Fatty acids and clofibrate (p-chlorophenoxyisobutyric acid) were added to the medium bound to 0.5% (weight/volume) bovine serum albumin (BSA). Isoprenoids and oxysterols were added in ethanol (≦0.1%) and juvenile hormone III was added as a dimethylsulfoxide (DMSO) solution (≦0.1%). Control explants were incubated in the presence of the appropriate vehicle (≦0.1% DMSO or ethanol, and/or ≦0.5% BSA). Skin explants from gestational day 17 rats were incubated in the presence of either various activators or vehicle, and transepidermal water loss was measured after two days. The activators and the concentrations at which they were used were as follows: […]

[2] = tested on: Skin explants from gestational day 17 rats; assay: Light and electron microscopy of fetal rat skin explants (epidermal maturation); assay type: cell-based; conditions: 48 hours
Method: Samples for light microscopy were fixed in modified Karnovsky's solution, plastic-embedded, and 0.5 μm sections were stained with toluidine. Samples for electron microscopy were minced into 1 mm^3 pieces, fixed in modified Karnovsky's fixative, and processed. Sections were stained with uranyl acetate and lead citrate, post-fixed in ruthenium tetroxide, and examined using a Zeiss 10A electron microscope.
Explants incubated in various media woe examined by light microscopy. The incubation di included control medium (containing no activators) and various media individually containing 300 μM clofibrate, 100 μM juvenile hormone III, 300 μM oleic acid, 30 μM linoleic acid, 50 μM farnesol, and various concentrations of 9-cis-retinoic acid, all-trans-retinoic acid, and 1,25-dihydroxy vitamin D3.
Observations were then made of the ultrastructural maturation of the outer epidermis in explants that had been incubated in the various media and then post-fixed in ruthenium tetroxide. Media identical to those of the preceding paragraph were used, excluding the retinoic acid-containing and 1,25-dihydroxy vitamin D3-containing media.

involucrin protein = assay: Involucrin protein level in keratinocytes by Western Blot; assay type: cell-based, Human; conditions: 0 to 15 μM, 0.03 mM Ca++, 24 hours
Method: Measurements of the level of the involucrin protein itself were performed in the culture medium by Western Blot. Various incubations were performed, in media containing clofibrate at concentrations ranging from 0 (vehicle only) to 400 μM and calcium ion at both 0.03 mM and 1.2 mM. The results are shown in FIG. 9a for tests with calcium ion at 0.03 mM, and in FIG. 9b for tests with calcium ion at 1.2 mM. In these figures, the protein contents are expressed as percents of the respective measurements taken from media incubated for the same period of time but in the absence of clofibrate.
The procedures of Example 8 were followed, and measurements were taken on the involucrin protein levels from cells incubated at various concentrations of farnesol and juvenile hormone III ranging from 0 (vehicle only) to 15 μM, in media containing 0.03 mM and 1.2 mM calcium ion, for 24 hours. The results are shown in FIG. 10 for farnesol and FIG. 11 for juvenile hormone III, in 0.03 mM Ca^++.
Protein concentration was assessed by protein electrophoresis and Western blotting. Cells were lysed is 2% SDS and the lysate sonicated. Protein determinations were made by use of a Bicinchoninic add protein assay (Pierce Chemical Company, Rockford, Ill. USA). Following protein determination, equal amounts at protein (50 μg) were separated by electrophoresis an 7.5% polyacrylamide gels and electroblotted onto polyvinylidene […] membranes (0.2-μ, obtained from Bio-Rad Laboratories Hercules, Calif., USA). Involucrin protein was detected by incubation over-night at 4° C. C. with a polyclonal rabbit anti-human involucrin antibody (1:1000 dilution). The involucrin-specific bands on the autoradiograms were quantitated by densitometry by densitometry. Transglutaminase protein expression was measured in a similar mmaner, using stacking, sample and running buffers containing 4 M urea, and the gels following electrophoresis were washed in 4 M urea, 25 mM TRIS-HCl, pH 7.4, 7.5 mM NaCl, 0.1 mM dithiothreitol (DTT), and 2 mM ethylenediamine tetraacetic acid for 90 minutes prior to electoblotting, allowing the transglutaminase to be detected by antibody. Specific bands on the autoradiograms were quantified by densitometry.

[3] = tested on: Normal human keratinocytes; assay: Cornified envelope formation (35S incorporation) in keratinocytes; assay type: cell-based; conditions: 10 μM, 0.03 mM calcium, 48-hour

Row | Structure (SMILES) | effect on TEWL / barrier function ([1]; two days) | EC50 [1] [µM] | concentration of maximal effect on barrier development (TEWL) [1] | other results
1 | CC(C)CC[C@H](O)[C@@H](C)[C@H]1CC[C@H]2[C@@H]3CC=C4C[C@@H](O)CC[C@]4(C)[C@H]3CC[C@]12C [22(S)-hydroxycholesterol] | – | – | – | involucrin (INV) mRNA level compared to the vehicle alone (involucrin mRNA): No effect; transglutaminase (TG'ase) mRNA level compared to the vehicle alone (transglutaminase mRNA): No effect
2 | CC(C)=CCC/C(C)=C\CC/C(C)=C\CO [cis-farnesol] | neither mevalonate at 200 μM, 25-hydroxy cholesterol at 50 μM), squalene at 50 μM, geranylgeraniol at 50 μM, cis-farnesol at 50 μM, nor nerolidol at 100 μM significantly affected barrier function | – | – | –
3 | CC(C)=CCC/C(C)=C/CC/C(C)=C/CO [farnesol, 3,7,11,trimethyl-2,6,10-dodecatrienol] | markedly decreased the TEWL | ~20 | approximately 50 μM | light microscopy of the epidermis ([2]; 50 μM): had both a multi-layered stratum granulosum and a stratum corneum; involucrin protein content (involucrin protein): substantial increases in involucrin protein content; rate of cornified envelope formation [3]: substantial increases in the rate of cornified envelope formation
4 | CC(C)=CCC/C(C)=C/CC/C(C)=C/CC/C(C)=C/CO [geranylgeraniol] | neither mevalonate at 200 μM, 25-hydroxy cholesterol at 50 μM), squalene at 50 μM, geranylgeraniol at 50 μM, cis-farnesol at 50 μM, nor nerolidol at 100 μM significantly affected barrier function | – | – | –
5 | CCCCC/C=C\C/C=C\CCCCCCCC(=O)O [linoleic acid] | – | ~12.5 | approximately 30 μM | effect on TEWL ([1]; explants incubated in 300 μM for two days, p<0.005, n=8): markedly decreased the TEWL; light microscopy of the epidermis ([2]; 30 μM): had both a multi-layered stratum granulosum and a stratum corneum
6 | C=CC(C)(O)CCC=C(C)CCC=C(C)C (centres unmarked) [nerolidol] | – | – | – | effect on TEWL / barrier formation ([1]; 100 μM, two days): neither mevalonate at 200 μM, 25-hydroxy cholesterol at 50 μM), squalene at 50 μM, geranylgeraniol at 50 μM, cis-farnesol at 50 μM, nor nerolidol at 100 μM significantly affected barrier function
7 | CCCCCCCC/C=C\CCCCCCCC(=O)O [oleic acid] | – | ~250 | approximately 500 μM | light microscopy of the epidermis ([2]; 300 μM): had both a multi-layered stratum granulosum and a stratum corneum
8 | CCCCC[C@H](O)/C=C/[C@H]1C(=O)C=C[C@@H]1C/C=C\CCCC(=O)O [prostaglandin J2] | – | – | – | effect on TEWL / barrier development ([1]; 10 μM, two days): had no effect
9 | CC(C)=CCC/C(C)=C/CC/C(C)=C/CC/C=C(\C)CC/C=C(\C)CCC=C(C)C [squalene] | neither mevalonate at 200 μM, 25-hydroxy cholesterol at 50 μM), squalene at 50 μM, geranylgeraniol at 50 μM, cis-farnesol at 50 μM, nor nerolidol at 100 μM significantly affected barrier function | – | – | –
